The subject of the test is VEGF. The test can be described thus: VEGF ELISA on plasma from renal cell carcinoma patients treated with Sorafenib. It counts as in vivo, human. A general note: In an ELISA, binding on a coated surface is turned into a signal by an enzyme label.

Protocol: Duplicate samples were used to measure the VEGF level using a VEGF ELISA (R&D Systems, Minneapolis, Minn.) per the manufacturers directions. The mean value of the duplicate measurements was determined for each patient.

Regarding `CNC(=O)c1cc(Oc2ccc(NC(=O)Nc3ccc(Cl)c(C(F)(F)F)c3)cc2)ccn1` [Sorafenib], the “Median VEGF” value by setting is: (Baseline (pretreatment)) 237.4 pg/mL; (Cycle 1 Day 21) 301.6 pg/mL; (Cycle 3 Day 1) 309.0 pg/mL. In addition, under “at both time points (Cycle 1 Day 21, Cycle 3 Day 1), p<<0.01, paired t-test”, the “change of VEGF levels from baseline” value is given as “increase significantly from baseline”.

These data come from patent US20080311601A1, “Methods for Prediction and Prognosis of Cancer, and Monitoring Cancer Therapy” (priority 2005, published 2008).
